The values below come from paper PMC6137088, “The Role of Outer Membrane Proteins and Lipopolysaccharides for the Sensitivity of Escherichia coli to Antimicrobial Peptides” (Frontiers in Microbiology, 2018).

Assay [1] deals with E. coli BW25113 gmhA::kan. The format is cell-based, Escherichia coli. The following applies: Table 3; BW25113 gmhA::kan; Mueller-Hinton-II, 16–20 h; duplicates (*) or triplicates. The text has this: (§1) The E. coli strains 470, F632, F653 and F2513 were kindly provided by Prof. H. Brade and Prof. S. Muller-Loennies, Research Center Borstel, Leipniz-Center for Medicine and Biosciences, Germany. E. coli BW25113 (CGSC#:7636), a derivative of F^−, λ^− E. coli K12 strain BD792 is the wild-type strain which was used in the generation of the KEIO collection and ordered from the Coli Genetic Stock Centre (CGSC, Yale University). E. coli JW3596, E. coli JW3024, E. coli JW3595, E. coli JW3606, E. coli JW0212, E. coli JW1667, E. coli JW0554, E. coli JW3605 and E. coli JW3600 are isogenic mutants of waaC, waaE, waaF, waaG, gmhA (lpcA), lpp, ompT, waaP, or waaY derived from the parental strain E. coli BW25113 and were ordered from the KEIO collection (Baba et al., [2006]). E. coli ATCC25922 is a clinical isolate, serotype O6, often used as control strain in antimicrobial susceptibility testing was ordered from the ATCC strain collection. All strains were grown in Mueller-Hinton-II medium and incubation took place aerobically at 37°C for 18–20 h.
(§2) The minimum inhibitory concentrations (MICs) of the AMPs were measured in 96-well microtiter plates according the Clinical and Laboratory Standards Institute [CLSI, formerly National Committee for Clinical Laboratory Standards (NCCLS)] (Wikler et al., [2009]). Liquid Mueller-Hinton-II medium containing increasing concentrations of AMPs is inoculated with a defined number of cells (~10^5 CFUs/ml) in 96-well microtiter plates (polypropylene). Each microtiter plate includes a positive growth control and a negative control (sterile control). After incubation, the minimal inhibitory concentration (MIC) is determined by the lowest concentration showing no visible growth. All plates were incubated for 16–20 h.

For assay [2], the system named is E. coli BW25113 ompT::kan. The format is cell-based, Escherichia coli. The following applies: Table 3; BW25113 ompT::kan; Mueller-Hinton-II, 16–20 h; duplicates (*) or triplicates.
Excerpt: as §1, §2

Assay [3] deals with E. coli BW25113 waaC::kan. The assay is classed as cell-based, Escherichia coli. Conditions: Table 3; BW25113 waaC::kan; Mueller-Hinton-II, 16–20 h; duplicates (*) or triplicates.
Excerpt: as §1, §2

Assay [4] concerns E. coli BW25113 waaE::kan. The format is cell-based, Escherichia coli. Conditions: Table 3; BW25113 waaE::kan; Mueller-Hinton-II, 16–20 h; duplicates (*) or triplicates.
Excerpt: as §1, §2

Assay [5] relates to E. coli BW25113 waaF::kan. The format is cell-based, Escherichia coli. The following applies: Table 3; BW25113 waaF::kan; Mueller-Hinton-II, 16–20 h; duplicates (*) or triplicates.
Excerpt: as §1, §2

In assay [6] the test system is E. coli BW25113 waaG::kan. The assay is classed as cell-based, Escherichia coli. Conditions: Table 3; BW25113 waaG::kan; Mueller-Hinton-II, 16–20 h; duplicates (*) or triplicates.
Excerpt: as §1, §2

The subject of assay [7] is E. coli BW25113 waaP::kan. The format is cell-based, Escherichia coli. Conditions: Table 3; BW25113 waaP::kan; Mueller-Hinton-II, 16–20 h; duplicates (*) or triplicates.
Excerpt: as §1, §2

The test system of assay [8] is E. coli BW25113 waaY::kan. The format is cell-based, Escherichia coli. Conditions: Table 3, Mueller-Hinton-II, 16–20 h, duplicates (*) or triplicates.
Excerpt: as §1, §2

The test system of a further assay is E. coli BW25113. The format is cell-based, Escherichia coli. The following applies: for MIC: Table 3, E. coli BW25113 wild type, Mueller-Hinton-II, ~10^5 CFUs/ml, 16–20 h, duplicates (*) or triplicates; for Antimicrobial activity (MIC): Table 4, E. coli BW25113 (K12 core type), triplicates.
Excerpt: as §1, §2

A further assay deals with E. coli F2513 (R4). The assay is classed as cell-based, Escherichia coli. The following applies: Table 4; E. coli F2513 (R4 prototype, rough LPS); triplicates.
Excerpt: as §1, §2

A further assay relates to E. coli F470 (R1). The format is cell-based, Escherichia coli. Conditions: Table 4; E. coli F470 (R1 prototype, rough LPS); triplicates.
Excerpt: as §1, §2

The next assay has as its system E. coli F632 (R2). The format is cell-based, Escherichia coli. The following applies: Table 4; E. coli F632 (R2 prototype, rough LPS); triplicates.
Excerpt: as §1, §2

For a further assay, the system named is E. coli F653 (R3). The assay is classed as cell-based, Escherichia coli. Conditions: Table 4; E. coli F653 (R3 prototype, rough LPS); triplicates.
Excerpt: as §1, §2

Assay [9] deals with E. coli strains representing core types K12, R1, R2, R3, R4 and ATCC25922. The format is cell-based, Escherichia coli. Conditions: span over isolates and core types of Table 4.
Excerpt: as §1, §2

The subject of another assay is E. coli BW25113 lpp::kan. The assay is classed as cell-based, Escherichia coli. Conditions: Table 3; BW25113 lpp::kan; Mueller-Hinton-II, 16–20 h; duplicates (*) or triplicates.
Excerpt: as §1, §2

The next assay relates to E. coli ATCC25922 ΔwaaC. The format is cell-based, Escherichia coli. Conditions: Table 6, triplicates.
Excerpt: as §1, §2

The subject of a further assay is E. coli ATCC25922 ΔwaaE. The format is cell-based, Escherichia coli. The following applies: Table 6, triplicates.
Excerpt: as §1, §2

A further assay has as its system E. coli ATCC25922 ΔwaaF. The assay is classed as cell-based, Escherichia coli. The following applies: Table 6, triplicates.
Excerpt: as §1, §2

Another assay has as its system E. coli ATCC25922 ΔwaaG. The assay is classed as cell-based, Escherichia coli. The following applies: Table 6, triplicates.
Excerpt: as §1, §2

The next assay relates to E. coli ATCC25922. The assay is classed as cell-based, Escherichia coli. The following applies: Table 6; E. coli ATCC25922 wild-type; triplicates.
Excerpt: as §1, §2

Another assay has as its system S. typhimurium LT2. Description: MIC testing (CLSI broth microdilution). The assay is classed as cell-based. The following applies: Table 6, triplicates. The method, then:
as §2
In general terms: Dilution methods test growth across graded concentrations, often in twofold steps.

In a further assay the test system is Y. ruckeri 392/2003. Description: MIC testing (CLSI broth microdilution). The format is cell-based. Conditions: Table 6, triplicates. The method, then:
as §2

Assay [10] relates to enterohemorrhagic E. coli EHEC EDL933. The following applies: ref Thomassin et al., 2012; cited from earlier work. The source says:
(§3) Bacterial pathogens have evolved different mechanisms to resist the antimicrobial activity of cationic AMPs (Peschel and Sahl, [2006]). The production of proteases degrading and thereby inactivating cationic AMPs is one obvious way for bacteria to protect themselves against antimicrobials. Several omptins such as OmpT, and PgtE, all proteases found in the OM of various Gram-negative pathogens belonging to the Enterobacteriaceae family, have been associated with the degradation of AMPs (Hritonenko and Stathopoulos, [2007]). In particular, OmpT has been implicated in the proteolytic degradation ...

Assay [11] relates to enteropathogenic E. coli EPEC E2348/69 ΔompT. The following applies: ref Thomassin et al., 2012; cited from earlier work.
Excerpt: as §3

Assay [12] has as its system uropathogenic E. coli CFT073ΔompT. Conditions: ref Brannon et al., 2013; cited from earlier work.
Excerpt: as §3

≈ marks a conversion by molar mass, not a printed value. Where no end group is shown, it is not given here.

Broadly, the MIC is the least concentration at which growth counts as inhibited. Read a high MIC as a less susceptible organism.

As to `CC[C@H](C)[C@H](NC(=O)CN)C(=O)NCC(=O)N[C@@H](C)C(=O)N[C@H](C(=O)N[C@@H](CC(C)C)C(=O)N[C@@H](CCCCN)C(=O)N[C@H](C(=O)N[C@@H](CC(C)C)C(=O)N[C@H](C(=O)N[C@H](C(=O)NCC(=O)N[C@@H](CC(C)C)C(=O)N1CCC[C@H]1C(=O)N[C@@H](C)C(=O)N[C@@H](CC(C)C)C(=O)N[C@H](C(=O)N[C@@H](CO)C(=O)N[C@@H](Cc1c[nH]c2ccccc12)C(=O)N[C@H](C(=O)N[C@@H](CCCCN)C(=O)N[C@@H](CCCNC(=N)N)C(=O)N[C@@H](CCCCN)C(=O)N[C@@H](CCCNC(=N)N)C(=O)N[C@@H](CCC(N)=O)C(=O)N[C@@H](CCC(N)=O)C(N)=O)[C@@H](C)CC)[C@@H](C)CC)[C@@H](C)O)[C@@H](C)O)C(C)C)C(C)C` [Melittin], the MIC is 2 ^* μg/ml in [1]; 32 ^* μg/ml in assay [2]; 4 µg/mL (≈ 1.41 µM) in [3]; 4 µg/mL (≈ 1.41 µM) in assay [4]; 4 µg/mL (≈ 1.41 µM) in assay [5]; 4 µg/mL (≈ 1.41 µM) in assay [6]. The MIC was 4 µg/mL (≈ 1.41 µM) in [7], 16 to 32 µg/mL in assay [8] and 16 to 32 µg/mL against E. coli BW25113. In addition, the “Antimicrobial activity (MIC)” value was 4 µg/mL in the assay with E. coli F2513 (R4), 16 µg/mL in the assay on E. coli F470 (R1), 32 µg/mL in the assay with E. coli F632 (R2) and 32 µg/mL with E. coli F653 (R3). Moreover, in [9], the “MIC over all the tested E. coli strains” value was 4 to 32 µg/mL.
As to “GLRKKFRKTRKRIQKLGRKIGKTGRKVWKAWREYGQIPYPCRI [Cap11]”, the MIC in [1] is 8 ^* μg/ml; with E. coli BW25113 lpp::kan, 8 ^* μg/ml; in assay [3], 8 µg/mL; in [4], 8 µg/mL; in assay [5], 8 µg/mL; in assay [6], 8 µg/mL. In addition, the figures for the minimal inhibitory concentration (MIC) (in [7]; in assay [8]; with E. coli BW25113) were 8 to 16 µg/mL, 8 to 16 µg/mL and 8 µg/mL, respectively. In addition, the “Antimicrobial activity (MIC)” value with E. coli BW25113 was 8 µg/mL; in the assay with E. coli F2513 (R4), 4 to 8 µg/mL; with E. coli F470 (R1), 16 µg/mL; in the assay on E. coli F632 (R2), 8 µg/mL; with E. coli F653 (R3) it was 16 µg/mL.
For the compound “GLRKRLRKFRNKIKEKLKKIGQKIQGLLPKLAPRTDY [Cap18]”, the “Antimicrobial activity: MIC” value in the assay with E. coli ATCC25922 ΔwaaC was 2 to 4 µg/mL; with E. coli ATCC25922 ΔwaaE, 4 µg/mL; with E. coli ATCC25922 ΔwaaF, 2 to 4 µg/mL; in the assay on E. coli ATCC25922 ΔwaaG it was 4 µg/mL; in the assay with E. coli ATCC25922, 4 to 8 µg/mL; in the assay on S. typhimurium LT2 it was 4 to 8 µg/mL. In addition, the “Antimicrobial activity: MIC” value with Y. ruckeri 392/2003 lay in the range of 2 to 4 µg/mL. Further, the MIC in assay [1] is 4 to 8 µg/mL; in [2], 4 to 8 µg/mL; in assay [3], 4 µg/mL; in assay [4] it was 4 µg/mL; in [5], 4 µg/mL; in assay [6], 4 µg/mL. Also, the MIC (in assay [7]; in assay [8]; in the assay on E. coli BW25113) was 4 to 8 µg/mL each time. Besides, the “Antimicrobial activity (MIC)” value with E. coli BW25113 was 4 to 8 µg/mL; in the assay with E. coli F2513 (R4), 2 to 4 µg/mL; in the assay with E. coli F470 (R1), 4 µg/mL; in the assay with E. coli F632 (R2) it was 4 µg/mL; in the assay on E. coli F653 (R3), 4 to 8 µg/mL. Moreover, in [9], the “MIC over all the tested E. coli strains” value was 4 to 8 µg/mL.
Turning to LL-37, the “decrease of MIC by loss of OmpT in EHEC EDL933 (factor)” value in assay [10] is listed as 2. Besides, the “decrease in MIC in the ΔompT mutant compared to parental EPEC E2348/69 (factor)” value in [11] is “unchanged”. Besides, in [12], the “change of MIC in CFT073ΔompT compared to wild-type CFT073” value was “unchanged”.
